These results are taken from patent publication US20230143604A1, “QW DOSING OF GIP RECEPTOR AGONIST PEPTIDE COMPOUNDS AND USES THEREOF” (TAKEDA PHARMACEUTICAL COMPANY LIMITED, priority 2020, published 2023).

Read-outs that look alike come from different tables or passages of the source.

One series in a line: physchem. In short, it runs like this:
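3 mg of peptide treated with 100 μL portions of 200 mM phosphate buffer pH 7.4, sonicating/vortexing up to 1 min, with further buffer added until fully dissolved. Solubility then quantified by HPLC.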

In another series the target is T1, human GLP-1R (Homo sapiens, UniProt P43220).
T1 construct: HEK-293T cells overexpressing full-length human GLP-1R; FLAG (N); host or cells: HEK-293T
Put plainly: Human GLP1R agonist activity, intracellular cAMP accumulation. It is filed as cell-based. The following applies: HEK-293T cells overexpressing human GLP-1R, 1 hr. In a few lines: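 Frozen assay-ready cells washed and resuspended at 4×10^5 cells/mL in Krebs Ringer buffer, then incubated with compound 1 hr at room temperature in the dark. cAMP read by HTRF (anti-cAMP antibody, d2-cAMP tracer). Normalised to 1 nm GLP-1 (100%) and DMSO (0%).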

A further series deals with C57BL/6J mice. Put plainly: Oral glucose tolerance test (OGTT). The following applies: 3 nmol/kg s.c., 24 hours before glucose loading. It is filed as in vivo. In a few lines: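 Peptide or vehicle given s.c. at 0.1, 0.3, 3 or 10 nmol/kg (peptide-dependent), 24 h before oral 50% dextrose at 5 ml/kg unless stated otherwise. Blood glucose read at 0, 15, 30 and 60 min. % inhibition = (1−(AUC cpd−AUC naïve)/(AUC veh−AUC naïve))×100.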

Where [1] appears, read: read-out: Human GLP1R cAMP EC50, HEK293T.

T1 sequence (P43220 24-463): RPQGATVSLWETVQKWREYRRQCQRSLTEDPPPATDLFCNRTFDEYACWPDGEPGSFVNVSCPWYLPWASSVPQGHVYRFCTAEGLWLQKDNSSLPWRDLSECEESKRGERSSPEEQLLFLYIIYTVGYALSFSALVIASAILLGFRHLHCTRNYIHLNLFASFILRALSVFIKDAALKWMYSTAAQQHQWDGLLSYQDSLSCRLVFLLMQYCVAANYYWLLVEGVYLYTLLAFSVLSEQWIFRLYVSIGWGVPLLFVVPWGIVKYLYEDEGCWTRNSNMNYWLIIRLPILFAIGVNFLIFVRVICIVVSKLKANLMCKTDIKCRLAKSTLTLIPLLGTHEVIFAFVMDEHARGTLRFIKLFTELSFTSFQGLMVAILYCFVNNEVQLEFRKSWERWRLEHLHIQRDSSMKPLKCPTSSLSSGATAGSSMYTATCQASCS

Take `CC[C@H](C)[C@H](NC(=O)[C@H](Cc1ccccc1)NC(=O)[C@@H](NC(=O)CNC(=O)[C@H](CCC(=O)O)NC(=O)C(C)(C)NC(=O)[C@H](Cc1ccc(O)cc1)NC)[C@@H](C)O)C(=O)N[C@@H](CO)C(=O)N[C@@H](CC(=O)O)C(=O)N[C@@H](Cc1ccc(O)cc1)C(=O)N[C@@H](CO)C(=O)N[C@H](C(=O)NC(C)(C)C(=O)N[C@@H](CC(C)C)C(=O)N[C@@H](CC(=O)O)C(=O)N[C@@H](CO)C(=O)N[C@@H](CCCCNC(=O)CNC(=O)CNC(=O)CNC(=O)CNC(=O)CNC(=O)CNC(=O)CCCCCCCCCCCCCCCCC(=O)O)C(=O)N[C@@H](C)C(=O)N[C@@H](CCC(N)=O)C(=O)NC(C)(C)C(=O)N[C@@H](CC(=O)O)C(=O)N[C@@H](Cc1ccccc1)C(=O)N[C@H](C(=O)N[C@@H](CC(N)=O)C(=O)N[C@@H](Cc1c[nH]c2ccccc12)C(=O)N[C@@H](CC(C)C)C(=O)N[C@@H](CC(C)C)C(=O)N[C@@H](C)C(=O)N[C@@H](CCC(N)=O)C(=O)N[C@@H](CCCNC(=N)N)C(=O)NCC(=O)O)C(C)C)[C@@H](C)CC` [Compound 64]: the solubility (in general, the concentration that dissolves in the medium under given conditions) is no less than 15 mg/mL in “physchem” (pH 7.4) and no less than 30 mg/mL in “physchem” (pH 7.4, aqueous buffer). The EC50 (in general, the concentration at which the effect is half-maximal) on human GLP-1R (setting [1]) came to 110 nM. Moreover, in the series on C57BL/6J mice, the “Oral Glucose Tolerance Test Percent decrease in blood glucose AUC (%) over 60 mins” value is 53% (3 nmol/kg).

As to `CC[C@H](C)[C@H](NC(=O)[C@H](CO)NC(=O)[C@H](Cc1ccc(O)cc1)NC(=O)[C@H](CC(=O)O)NC(=O)[C@H](CO)NC(=O)[C@@H](NC(=O)[C@H](Cc1ccccc1)NC(=O)[C@@H](NC(=O)CNC(=O)[C@H](CCC(=O)O)NC(=O)C(C)(C)NC(=O)[C@H](Cc1ccc(O)cc1)NC)[C@@H](C)O)[C@@H](C)CC)C(=O)N[C@@H](C)C(=O)N[C@@H](CCCCNC(=O)CNC(=O)CNC(=O)CNC(=O)CNC(=O)CNC(=O)CCCCCCCCCCCCCCCCC(=O)O)C(=O)N[C@@H](CC(=O)O)C(=O)N[C@@H](CCCNC(=N)N)C(=O)NC(C)(C)C(=O)N[C@@H](C)C(=O)N[C@@H](CCC(N)=O)C(=O)NC(C)(C)C(=O)N[C@@H](CC(=O)O)C(=O)N[C@@H](Cc1ccccc1)C(=O)N[C@H](C(=O)N[C@@H](CC(N)=O)C(=O)N[C@@H](Cc1c[nH]c2ccccc12)C(=O)N[C@@H](CC(C)C)C(=O)N[C@@H](CC(C)C)C(=O)N[C@@H](C)C(=O)N[C@@H](CCC(N)=O)C(=O)N[C@@H](CCCCNC(C)=O)C(=O)NCC(=O)O)C(C)C` [Compound 81], the solubility was no less than 15 mg/mL in the series “physchem” (pH 7.4) and no less than 30 mg/mL in “physchem” (pH 7.4, aqueous buffer). The 50% effective concentration (EC50) on human GLP-1R (setting [1]) was found to be 33.9 nM. In addition, the “Oral Glucose Tolerance Test Percent decrease in blood glucose AUC (%) over 60 mins” value in the series with C57BL/6J mice is given as 66% (3 nmol/kg).

With `CC[C@H](C)[C@H](NC(=O)[C@H](CO)NC(=O)[C@H](Cc1ccc(O)cc1)NC(=O)[C@H](CC(=O)O)NC(=O)[C@H](CO)NC(=O)[C@@H](NC(=O)[C@H](Cc1ccccc1)NC(=O)[C@@H](NC(=O)CNC(=O)[C@H](CCC(=O)O)NC(=O)C(C)(C)NC(=O)[C@@H](N)Cc1ccc(O)cc1)[C@@H](C)O)[C@@H](C)CC)C(=O)N[C@@H](C)C(=O)N[C@@H](CCCCNC(=O)CNC(=O)CNC(=O)CNC(=O)CNC(=O)CNC(=O)CCCCCCCCCCCCCCCCC(=O)O)C(=O)N[C@@H](CC(=O)O)C(=O)N[C@@H](CCCNC(=N)N)C(=O)NC(C)(C)C(=O)N[C@@H](C)C(=O)N[C@@H](CCC(N)=O)C(=O)N[C@@H](C)C(=O)N[C@@H](CC(=O)O)C(=O)N[C@@H](Cc1ccccc1)C(=O)N[C@H](C(=O)N[C@@H](CCC(=O)O)C(=O)N[C@@H](Cc1c[nH]c2ccccc12)C(=O)N[C@@H](CC(C)C)C(=O)N[C@@H](CC(C)C)C(=O)N[C@@H](C)C(=O)N[C@@H](CCC(N)=O)C(=O)N[C@@H](CCCNC(=N)N)C(=O)NCC(=O)O)C(C)C` [Compound 149], the solubility was no less than 15 mg/mL in the series “physchem” (pH 7.4) and no less than 30 mg/mL in “physchem” (pH 7.4, aqueous buffer). Moreover, the EC50 on human GLP-1R (setting [1]) was determined as 15.8 nM. The “Oral Glucose Tolerance Test Percent decrease in blood glucose AUC (%) over 60 mins” value in the series with C57BL/6J mice is 13% (3 nmol/kg).

With `CC[C@H](C)[C@H](NC(=O)[C@H](Cc1ccccc1)NC(=O)[C@@H](NC(=O)CNC(=O)[C@H](CCC(=O)O)NC(=O)C(C)(C)NC(=O)[C@H](Cc1ccc(O)cc1)NC)[C@@H](C)O)C(=O)N[C@@H](CO)C(=O)N[C@@H](CC(=O)O)C(=O)N[C@@H](Cc1ccc(O)cc1)C(=O)N[C@@H](CO)C(=O)N[C@H](C(=O)NC(C)(C)C(=O)N[C@@H](CC(C)C)C(=O)N[C@@H](CC(=O)O)C(=O)N[C@@H](CCCNC(=N)N)C(=O)N[C@@H](CCCCNC(=O)CNC(=O)CNC(=O)CNC(=O)CNC(=O)CNC(=O)CCCCCCCCCCCCCCCCC(=O)O)C(=O)N[C@@H](C)C(=O)N[C@@H](CCC(N)=O)C(=O)NC(C)(C)C(=O)N[C@@H](CC(=O)O)C(=O)N[C@@H](Cc1ccccc1)C(=O)N[C@H](C(=O)N[C@@H](CC(N)=O)C(=O)N[C@@H](Cc1c[nH]c2ccccc12)C(=O)N[C@@H](CC(C)C)C(=O)N[C@@H](CC(C)C)C(=O)N[C@@H](C)C(=O)N[C@@H](CCC(N)=O)C(=O)N[C@@H](CO)C(=O)N1CCC[C@H]1C(=O)NCC(=O)O)C(C)C)[C@@H](C)CC` [Compound 88], the solubility in the series “physchem” (pH 7.4) is no less than 15 mg/mL; in the series “physchem” (pH 7.4, aqueous buffer), no less than 30 mg/mL. Also, at human GLP-1R (setting [1]), the EC50 worked out at 13.5 nM. Further, in the series with C57BL/6J mice, the “Oral Glucose Tolerance Test Percent decrease in blood glucose AUC (%) over 60 mins” value was 64% (3 nmol/kg).

For the compound `CC[C@H](C)[C@H](NC(=O)[C@H](Cc1ccccc1)NC(=O)[C@@H](NC(=O)CNC(=O)[C@H](CCC(=O)O)NC(=O)C(C)(C)NC(=O)[C@@H](N)Cc1ccc(O)cc1)[C@@H](C)O)C(=O)N[C@@H](CO)C(=O)N[C@@H](CC(=O)O)C(=O)N[C@@H](Cc1ccc(O)cc1)C(=O)N[C@@H](CO)C(=O)N[C@H](C(=O)NC(C)(C)C(=O)N[C@@H](CCCCNC(=O)CNC(=O)CNC(=O)CNC(=O)CNC(=O)CNC(=O)CCCCCCCCCCCCCCCCC(=O)O)C(=O)N[C@@H](CC(=O)O)C(=O)N[C@@H](CCCNC(=N)N)C(=O)N[C@@H](C)C(=O)N[C@@H](C)C(=O)N[C@@H](CCC(N)=O)C(=O)NC(C)(C)C(=O)N[C@@H](CC(=O)O)C(=O)N[C@@H](Cc1ccccc1)C(=O)N[C@H](C(=O)N[C@@H](CCC(=O)O)C(=O)N[C@@H](Cc1c[nH]c2ccccc12)C(=O)N[C@@H](CC(C)C)C(=O)N[C@@H](CC(C)C)C(=O)N[C@@H](C)C(=O)N[C@@H](CCC(N)=O)C(=O)N[C@@H](CCCNC(=N)N)C(=O)NCC(=O)O)C(C)C)[C@@H](C)CC` [Compound 145], the solubility in “physchem” (pH 7.4) is no less than 15 mg/mL; in “physchem” (pH 7.4, aqueous buffer) it was no less than 30 mg/mL. In addition, the EC50 on human GLP-1R (setting [1]) turned out to be 9.33 nM. Also, in the series with C57BL/6J mice, the “Oral Glucose Tolerance Test Percent decrease in blood glucose AUC (%) over 60 mins” value is on record as 52% (3 nmol/kg).

Take `CC[C@H](C)[C@H](NC(=O)[C@H](CO)NC(=O)[C@H](Cc1ccc(O)cc1)NC(=O)[C@H](CC(=O)O)NC(=O)[C@H](CO)NC(=O)[C@@H](NC(=O)[C@H](Cc1ccccc1)NC(=O)[C@@H](NC(=O)CNC(=O)[C@H](CCC(=O)O)NC(=O)C(C)(C)NC(=O)[C@H](Cc1ccc(O)cc1)NC)[C@@H](C)O)[C@@H](C)CC)C(=O)N[C@@H](C)C(=O)N[C@@H](CC(C)C)C(=O)N[C@@H](CC(=O)O)C(=O)N[C@@H](CCCNC(=N)N)C(=O)N[C@@H](CCCCNC(=O)CNC(=O)CNC(=O)CNC(=O)CNC(=O)CNC(=O)CCCCCCCCCCCCCCCCC(=O)O)C(=O)N[C@@H](C)C(=O)N[C@@H](CCC(N)=O)C(=O)NC(C)(C)C(=O)N[C@@H](CC(=O)O)C(=O)N[C@@H](Cc1ccccc1)C(=O)N[C@H](C(=O)N[C@@H](CC(N)=O)C(=O)N[C@@H](Cc1c[nH]c2ccccc12)C(=O)N[C@@H](CC(C)C)C(=O)N[C@@H](CC(C)C)C(=O)N[C@@H](C)C(=O)N[C@@H](CCC(N)=O)C(=O)N[C@@H](CO)C(=O)N1CCC[C@H]1C(=O)N[C@@H](CO)C(=O)N[C@@H](CO)C(=O)NCC(=O)N[C@@H](C)C(=O)N1CCC[C@H]1C(=O)N1CCC[C@H]1C(=O)N1CCC[C@H]1C(=O)N[C@@H](CO)C(=O)O)C(C)C` [Compound 52]: the solubility in “physchem” (pH 7.4, aqueous buffer, pH 7.4 Phosphate Buffer - Solubility, 200 mM Phosphate buffer pH 7.4) was no less than 30 mg/mL; in “physchem” (pH 7.4, solubility in phosphate buffer at pH 7.4, 200 mM phosphate buffer pH 7.4) it was no less than 15 mg/mL. This compound had a concentration giving a half-maximal response (EC50) on human GLP-1R (Human GLP1R cAMP EC50, HEK293T (nM)) of 17 nM. Also, in the series with C57BL/6J mice, the “Oral Glucose Tolerance Test Percent decrease in blood glucose AUC (%) over 60 mins” value is on record as 65% (3 nmol/kg).

For `CC[C@H](C)[C@H](NC(=O)[C@H](CO)NC(=O)[C@H](Cc1ccc(O)cc1)NC(=O)[C@H](CC(=O)O)NC(=O)[C@H](CO)NC(=O)[C@@H](NC(=O)[C@H](Cc1ccccc1)NC(=O)[C@@H](NC(=O)CNC(=O)[C@H](CCC(=O)O)NC(=O)C(C)(C)NC(=O)[C@H](Cc1ccc(O)cc1)NC)[C@@H](C)O)[C@@H](C)CC)C(=O)N[C@@H](C)C(=O)N[C@@H](CCCCNC(=O)CNC(=O)CNC(=O)CNC(=O)CNC(=O)CNC(=O)CCCCCCCCCCCCCCCCC(=O)O)C(=O)N[C@@H](CC(=O)O)C(=O)N[C@@H](CCCNC(=N)N)C(=O)NC(C)(C)C(=O)N[C@@H](C)C(=O)N[C@@H](CCC(N)=O)C(=O)NC(C)(C)C(=O)N[C@@H](CC(N)=O)C(=O)N[C@@H](Cc1ccccc1)C(=O)N[C@H](C(=O)N[C@@H](CC(N)=O)C(=O)N[C@@H](Cc1c[nH]c2ccccc12)C(=O)N[C@@H](CC(C)C)C(=O)N[C@@H](CC(C)C)C(=O)N[C@@H](C)C(=O)N[C@@H](CCC(N)=O)C(=O)N[C@@H](CO)C(=O)N1CCC[C@H]1C(=O)NCC(=O)O)C(C)C` [Compound 114], the solubility in “physchem” (pH 7.4) is no less than 15 mg/mL; in the series “physchem” (pH 7.4, aqueous buffer), no less than 30 mg/mL. In addition, the EC50 on human GLP-1R (setting [1]) was 11.7 nM. The “Oral Glucose Tolerance Test Percent decrease in blood glucose AUC (%) over 60 mins” value with C57BL/6J mice is reported as 50% (3 nmol/kg).
